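Protocol summary: plate cells (96-well), add compound at 5 concentrations, incubate 48 h, interpolate endpoints linearly. GI50 marks 50% less growth.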 Calls of active or inactive are those of the source. Cut-off read from the data, not from the text of the source: active = GI50 up to about 1.1 µM and inactive = higher.
Assays:
Test in all cases: inhibition of tumour cell growth, NCI panel, 48 h
[1] = system: RPMI-8226
[2] = system: 786-0
[3] = system: SR
[4] = system: K562
[5] = system: U-251
[6] = system: SNB-19
[7] = system: Malme-3M
[8] = system: A549
[9] = system: UO-31
[10] = system: NCI-H23
[11] = system: HT-29
[12] = system: EKVX
[13] = system: MOLT-4
[14] = system: UACC-62
[15] = system: SK-MEL-28
[16] = system: HOP-92
[17] = system: COLO 205

Measured: GI50

CCCCCCCCCCCCCCC1OC(=O)c2ccccc21 (configuration not stated)
inactive: [1] 32.2 µM | [2] > 100 µM | [3] 42.5 µM | [4] 30.6 µM | [5] > 100 µM | [6] > 100 µM | [7] > 100 µM | [8] 60.3 µM | [9] > 100 µM | [10] 43.8 µM | [11] 35.8 µM | [12] 39.9 µM | [13] 36.7 µM | [14] > 100 µM | [15] > 100 µM

COC(=O)c1c2c(cc3c1CC1(Cc4cc5c(c(C(C)=O)c4C1)CCC5)C3)CCC2 (configuration not stated)
inactive: [2] 42.4 µM | [3] 43.7 µM | [4] 35.2 µM | [5] 78.3 µM | [6] 58.3 µM | [7] 16.4 µM | [8] 27.5 µM | [16] 22.3 µM | [9] 38 µM | [17] > 100 µM | [10] 64.1 µM | [11] 40.3 µM | [13] 38.2 µM | [14] 44.9 µM | [15] > 100 µM

CCc1ccccc1NC(=O)C(=O)C1C(=O)N(c2ccccc2)N=C1N (configuration not stated)
inactive: [1] > 100 µM | [2] > 100 µM | [4] > 100 µM | [5] > 100 µM | [6] > 100 µM | [7] > 100 µM | [8] > 100 µM | [16] > 100 µM | [9] > 100 µM | [10] > 100 µM | [11] > 100 µM | [12] > 100 µM | [13] 8.3 µM | [14] > 100 µM | [15] > 100 µM

Clc1ccc(SC(/C=C/NNC2=NN=C(c3ccccc3)C(c3ccccc3)N2)c2ccccc2)cc1 (configuration not stated)
inactive: [1] 6.64 µM | [2] 28.2 µM | [4] 18.2 µM | [5] 31.2 µM | [6] 80.5 µM | [7] 18.2 µM | [8] 29.2 µM | [16] 7.98 µM | [9] 13.2 µM | [17] 20.8 µM | [10] 10.4 µM | [11] 15.1 µM | [12] 26.9 µM | [13] 11.2 µM | [14] 27.6 µM | [15] 20.8 µM

Cn1nc(-c2ccccc2NC(=O)C(F)(F)F)c(=O)n(C)c1=S
inactive: [2] 61.9 µM | [3] 18.1 µM | [4] 15.9 µM | [5] 27 µM | [6] 38.8 µM | [7] 37.8 µM | [8] 50.5 µM | [16] 15.2 µM | [9] 21.7 µM | [17] > 10 µM | [10] 29.2 µM | [11] 25.8 µM | [12] 31.3 µM | [13] 22.6 µM | [14] > 10 µM | [15] 12 µM

COc1ccc(-c2ccccc2)c2[nH]c3c(c12)CCNC3=O
inactive: [1] > 100 µM | [2] > 100 µM | [3] > 100 µM | [4] > 100 µM | [5] > 100 µM | [6] > 100 µM | [7] > 100 µM | [8] > 100 µM | [16] > 100 µM | [9] > 100 µM | [17] > 100 µM | [10] > 100 µM | [11] > 100 µM | [12] > 100 µM | [13] > 100 µM | [14] > 100 µM

CC(=O)n1c2c(c(=O)n1-c1ccccc1)[S+]([O-])CCC2 (configuration not stated)
inactive: [1] 6.08 µM | [2] 40.7 µM | [3] 4.53 µM | [4] 26.7 µM | [5] > 100 µM | [6] > 100 µM | [7] > 56.4 µM | [8] > 92.9 µM | [9] > 100 µM | [17] > 100 µM | [10] > 100 µM | [11] 69.5 µM | [12] > 95.7 µM | [13] 1.25 µM | [14] 20.3 µM | [15] > 100 µM

COc1ccc(NC(=O)CSc2nnc(-c3ccc(NC(C)=O)cc3)o2)cc1
inactive: [2] 17.2 µM | [4] 21.4 µM | [5] 15.7 µM | [7] 20.6 µM | [8] 20.9 µM | [9] 17.7 µM | [17] 19.4 µM | [10] 10.7 µM | [11] 11.1 µM | [12] 23 µM | [13] 17.4 µM | [14] 16.5 µM | [15] 18.7 µM

CC1=C(C)CC2(SC1)C(=O)c1ccccc1C2=O
inactive: [1] > 100 µM | [2] > 100 µM | [3] > 100 µM | [4] > 100 µM | [5] > 100 µM | [6] > 100 µM | [7] > 100 µM | [8] > 100 µM | [16] 65.8 µM | [9] 66.1 µM | [17] > 100 µM | [11] > 100 µM | [13] > 100 µM | [14] > 100 µM

NC(=O)/C=C/C(=O)O
inactive: [1] > 5000 µM | [2] > 5000 µM | [3] > 5000 µM | [4] > 5000 µM | [5] > 5000 µM | [7] > 5000 µM | [8] > 5000 µM | [16] > 5000 µM | [9] > 5000 µM | [17] > 5000 µM | [10] > 5000 µM | [11] > 5000 µM | [13] > 5000 µM | [14] > 5000 µM | [15] > 5000 µM

COc1cc2cccc(NC(=O)c3cc(OC)c(OC)c(OC)c3Br)c2cc1OC
inactive: [1] 2.45 µM | [2] 29.2 µM | [4] 12.5 µM | [5] 22.3 µM | [6] 14.2 µM | [7] 18.5 µM | [8] 14.1 µM | [9] 5.9 µM | [17] 12.9 µM | [10] 8 µM | [11] 21.8 µM | [12] 21.1 µM | [13] 2.79 µM | [14] 10.3 µM | [15] 16.1 µM

COCCOCOc1ccc(OCOCCOC)c2c1C(=O)c1ccccc1C2=O
inactive: [2] 92.9 µM | [4] 24.7 µM | [5] 41.9 µM | [6] > 87.9 µM | [7] 41.5 µM | [8] 46.6 µM | [16] > 79.6 µM | [9] 28.7 µM | [17] 54.1 µM | [10] 74.1 µM | [11] 37.2 µM | [12] 38.3 µM | [13] 21.6 µM | [14] 47.6 µM | [15] > 100 µM

COc1cc2c(cc1O)[C@H](C)C(c1ccc(OC)c(OC)c1)O2 (some centres not stated)
inactive: [1] 8.2 µM | [2] 11.3 µM | [4] 2.98 µM | [5] 5.87 µM | [6] 1.68 µM | [7] 10.3 µM | [8] 7.24 µM | [16] 10.4 µM | [9] 5.69 µM | [17] 20.4 µM | [10] 10.6 µM | [11] 18 µM | [12] 17.5 µM | [13] 6.41 µM | [14] 3.09 µM | [15] 9.75 µM
